The values that follow come from patent US20100003326A1, “DRUG DELIVERY DEVICE COMPRISING A PHARMACEUTICALLY OR BIOLOGICALLY ACTIVE COMPONENT AND AN INFRARED ABSORBING COMPOUND” (DOLPHYS TECHNOLOGIES B.V., priority 2006, published 2010).

Data set [1] is described as follows: Infrared-triggered release of ibuprofen from P(BMA-MMA) disc in physiological buffer. Type of data set: physicochemical. As to conditions: physiological buffer at 30° C.; for speed of release of ibuprofen from the disc: P(BMA-MMA) disc, 290 ppm Lumogen IR 788, 5 wt % ibuprofen. The protocol: An object consisting of a pressed circular disc with a diameter of 2.5 cm and thickness of 2 mm was placed in a holder in a vessel completely containing 90 mL physiological buffer at 30° C. […] Addition of ibuprofen led to a lowering of the Tg to about 35° C. The disc was irradiated perpendicularly to the surface with the same laser diode module as in Example 1a, the laser power being 750 mW and the distance between fiber exit and disc 50 mm. The water layer between sample and disc was approximately 20 mm. A glass lid was placed on the vessel to prevent water evaporation. The vessel was completely filled with water, thus avoiding reflection and refraction effects at an additional air/water interface. The near-infrared irradiation only encountered an air to glass and a glass to water transition. Irradiation was applied in an alternating manner, periods of irradiation of 4 hours being alternated by periods of 20 hours without irradiation.

A short description of data set [2]: Ibuprofen blood plasma concentration after infrared triggering of subcutaneous strand in rat. Type of data set: in vivo. The conditions noted are these: sc; for concentration at 1 day: first time; for concentration at 2 day: second time (next day). As for the experimental part: An object consisting of a compounded strand with a diameter of 2.0 mm and a length of 2.0 cm. […] Addition of ibuprofen led to a lowering of the Tg to about −1° C.
The strand was placed subcutaneously in a rat. After 1 day, the strand was irradiated perpendicularly to the length axis with the same laser diode module as in Example 1a, for 15 minutes, the laser power set at 750 mW and the distance between fiber exit and the skin of the rat being 20 mm. The next day this procedure was repeated again.
Blood samples were taken before, during and after triggering on both days. As a consequence of irradiation, the concentration of ibuprofen in the blood plasma increased the first time from below 5 ng/ml (no detection peak of LC-MS/MS was found) to 25 ng/ml and the second time from below 5 ng/ml (no peak was found) to 19 ng/ml.

[3] abbreviates: subcutaneous strand with 40 wt % ibuprofen, as a consequence of 15 minutes irradiation at 750 mW.

Structures are written as SMILES. Bounds are passed on as bounds.

As for `CC(C)Cc1ccc(C(C)C(=O)O)cc1` (stereo not shown) [ibuprofen], the “release of ibuprofen after stopping irradiation” value in data set [1] (after stopping irradiation, same disc) is given as “fell virtually immediately to the base value”. Further, the “speed of release of ibuprofen from the disc” value in data set [1] (during irradiation (785 nm laser, 750 mW, 4 hours periods)) is on record as “around 3.9×10^−6 g/h”; in data set [1] (without irradiation (base value)) it was “less than 1×10^−6 g/h”. In addition, the concentration at 1 day in data set [2] (subcutaneous poly(L,DL-Lactide) strand with 40 wt % ibuprofen, before irradiation, LC-MS/MS) is below 5 ng/mL; in data set [2] (setting [3]), 25 ng/mL. Also, the concentration at 2 day was 19 ng/mL in data set [2] (setting [3]) and below 5 ng/mL in data set [2] (subcutaneous strand with 40 wt % ibuprofen, before irradiation, LC-MS/MS).
